Data set [1] has as its target T1, norepinephrine transporter (NET) (Homo sapiens, UniProt P23975).
T1 construct: cells naturally expressing NET; host or cells: SK-N-SH human neuroblastoma cells
In words: Competitive cell uptake assay against 3H-norepinephrine in SK-N-SH human neuroblastoma cells. It counts as cell-based. The source says:
SK-N-SH (human neuroblastoma cell line) cells naturally expressing NET were cultivated according to the instructions from the supplier (Sigma-Aldrich Chemie GmbH, Taufkirchen, Germany). […] Cell lysates were collected and measured in a liquid scintillation analyzer.

On the set-up of data set [2]: method as in PMID 28322043. To be noted: rhesus macaque monkeys, not before 90 min after radiotracer injection; cited from earlier work.
Data set [3] in a line: Dynamic PET imaging and biodistribution of the radiotracer in healthy nonhuman primates. To be noted: NHP controls. Format: in vivo, cynomolgus monkeys. How it is done: (§1) Male Wistar rats (n = 4, weighing 250-400 g) and New Zealand white rabbits (n = 5, weighing 3.2-3.6 kg) were used for cardiac uptake studies. Anesthesia was induced and maintained during the experiment by 2% isoflurane. Large animal PET studies were performed on cynomolgus monkeys (n = 4, weighing 3.9-4.2 kg). Induction of anesthesia in NHPs was conducted by intramuscular injection of ketamine (1.5 mg/kg) and xylazine (0.6 mg/kg) to allow the preparation and handling of the animals. After a tracheal cannula was inserted, 1.5% sevoflurane (SEVOFLURANE Inhalation Solution, Pfizer Japan Inc., Tokyo, Japan) vaporized with 100% oxygen was inhaled, and the tidal volume and respiratory rate of the ventilator were monitored and kept in the normal range throughout the imaging sessions with an anesthesia workstation (Apollo®, Drägerwerk AG & Co. KGaA, Lübeck, Germany).
NHPs were maintained under anesthesia during imaging and were studied with a PET scanner (PCA-2000A, Toshiba Medical Systems Corporation, Tochigi, Japan). After a 5-min transmission scan and a bolus intravenous (i.v.) injection of the radiotracer ^18F-AF78 (approximately 20 MBq) via the saphenous vein, a 60-min dynamic PET scan (10 s × 12, 30 s × 6, and 300 s × 11) was initiated. For the blocking study, DMI was injected 10 min before radiotracer administration, after which the PET scan commenced immediately (n = 4). For the DMI chase study, DMI (1 mg/kg, n = 4) was injected 10 min after radiotracer administration, while the PET scan was initiated simultaneously with radiotracer administration. The catecholamine releasing stimulator tyramine (TYR) was also used in a chase protocol, with 50 µg/kg each injection (n = 4) injected intermittently (5 times, 10-min intervals) after radiotracer administration. The radiotracers ^18F-AF78 and ^123I-MIBG were formulated in saline for the animal studies. Control animals received normal saline. The inhibitors PhB, DMI and TYR were first dissolved in a minimum amount of DMSO and diluted with saline for administration with a final concentration of DMSO lower than 10%. The experimental timeline is provided in the supplementary material.
(§2) PET imaging for rats, rabbits and NHPs was performed from the chest to the upper abdomen, including the heart, lungs, liver and part of the intestines. The reconstructed images were analyzed using AMIDE imaging software (version 1.0.1). For kinetic studies in rats and NHPs, the tissue uptake was determined as standardized uptake values (SUVs), from which time-activity curves of different organs, e.g., heart, blood, lung and liver, were generated with transmission computed tomography images for topographic localization.

Data set [4] has as its system norepinephrine transporter (NET). In words: PET kinetic studies in nonhuman primates with DMI blocking, DMI chase and tyramine chase. Format: in vivo, cynomolgus monkeys. As to conditions: NHP heart, 60 min. How it is done: as §1
NHPs were maintained under anesthesia during imaging and were studied with a PET scanner (PCA-2000A, Toshiba Medical Systems Corporation, Tochigi, Japan). After a 5-min transmission scan and a bolus intravenous (i.v.) injection of the radiotracer ^18F-AF78 (approximately 20 MBq) via the saphenous vein, a 60-min dynamic PET scan (10 s × 12, 30 s × 6, and 300 s × 11) was initiated. For the blocking study, DMI was injected 10 min before radiotracer administration, after which the PET scan commenced immediately (n = 4). For the DMI chase study, DMI (1 mg/kg, n = 4) was injected 10 min after radiotracer administration, while the PET scan was initiated simultaneously with radiotracer administration. […]
as §2

Data set [5] addresses T2, norepinephrine transporter (NET) (Rattus norvegicus, UniProt Q63380).
T2 construct: from tissue; host or cells: heart of living Wistar rats (in vivo PET, ex vivo tissue counting)
The experiment in a line: PET imaging and biodistribution in rats with or without PhB blocking. Format: in vivo, Wistar rats. The method, then:
as §1
A small-animal PET system (microPET FOCUS 120, Siemens, Erlangen, Germany) was used for the rat studies. […] The organ-to-blood ratios were calculated following weight and decay correction of tissue counts.
PET imaging for rats, rabbits and NHPs was performed from the chest to the upper abdomen, including the heart, lungs, liver and part of the intestines. The reconstructed images were analyzed using AMIDE imaging software (version 1.0.1). […]

The target of data set [6] is T3, norepinephrine transporter (NET) (Oryctolagus cuniculus, UniProt G1TDF9).
T3 construct: from tissue; host or cells: heart of living New Zealand white rabbits (in vivo PET, gamma counting)
T3 sequence (G1TDF9 1-617): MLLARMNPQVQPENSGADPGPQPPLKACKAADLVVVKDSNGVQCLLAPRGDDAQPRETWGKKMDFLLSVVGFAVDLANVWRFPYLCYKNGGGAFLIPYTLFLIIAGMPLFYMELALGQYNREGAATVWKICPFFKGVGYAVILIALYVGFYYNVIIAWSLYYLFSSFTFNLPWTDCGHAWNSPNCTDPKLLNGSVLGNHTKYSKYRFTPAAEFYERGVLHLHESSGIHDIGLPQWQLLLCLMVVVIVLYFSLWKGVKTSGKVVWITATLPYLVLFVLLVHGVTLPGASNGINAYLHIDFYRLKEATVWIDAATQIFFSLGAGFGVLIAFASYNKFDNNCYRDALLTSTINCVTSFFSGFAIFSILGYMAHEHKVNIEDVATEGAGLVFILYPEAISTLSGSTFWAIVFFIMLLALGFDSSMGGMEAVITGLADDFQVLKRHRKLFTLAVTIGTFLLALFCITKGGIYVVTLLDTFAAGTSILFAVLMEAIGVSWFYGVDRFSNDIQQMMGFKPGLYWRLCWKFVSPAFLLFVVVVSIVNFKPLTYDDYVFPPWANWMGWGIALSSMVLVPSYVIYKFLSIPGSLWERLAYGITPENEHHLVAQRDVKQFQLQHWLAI
In words: PET imaging and cardiac uptake in rabbits with or without DMI blocking. As to conditions: DMI 1.5 mg/kg 10 min before tracer, SUV, n = 5. It counts as in vivo, New Zealand white rabbits. The method, then:
as §1
^18F-AF78 (3-4 MBq) and ^123I-MIBG (approximately 2.5 MBq) were injected into rabbits maintained under anesthesia via the marginal ear vein in a single dose. The NET blocker DMI (1.5 mg/kg) was injected 10 min before radiotracer administration in the blocking study. A 10-min dynamic scan was initiated immediately after the radiotracer injection. The animals were euthanized immediately after the scan, and the organs of interest were harvested and measured in a gamma counter to calculate biodistribution. […]

The mark [7] stands for this setting: SK-N-SH cells, 60 min, 37 °C, mean ± SD, n = 4, read-out: IC50, competitive cell uptake affinity against 3H-NE.

Structures are written as SMILES. Like-named read-outs stand apart in the source and are kept apart here.

T1 sequence (P23975 whole entry): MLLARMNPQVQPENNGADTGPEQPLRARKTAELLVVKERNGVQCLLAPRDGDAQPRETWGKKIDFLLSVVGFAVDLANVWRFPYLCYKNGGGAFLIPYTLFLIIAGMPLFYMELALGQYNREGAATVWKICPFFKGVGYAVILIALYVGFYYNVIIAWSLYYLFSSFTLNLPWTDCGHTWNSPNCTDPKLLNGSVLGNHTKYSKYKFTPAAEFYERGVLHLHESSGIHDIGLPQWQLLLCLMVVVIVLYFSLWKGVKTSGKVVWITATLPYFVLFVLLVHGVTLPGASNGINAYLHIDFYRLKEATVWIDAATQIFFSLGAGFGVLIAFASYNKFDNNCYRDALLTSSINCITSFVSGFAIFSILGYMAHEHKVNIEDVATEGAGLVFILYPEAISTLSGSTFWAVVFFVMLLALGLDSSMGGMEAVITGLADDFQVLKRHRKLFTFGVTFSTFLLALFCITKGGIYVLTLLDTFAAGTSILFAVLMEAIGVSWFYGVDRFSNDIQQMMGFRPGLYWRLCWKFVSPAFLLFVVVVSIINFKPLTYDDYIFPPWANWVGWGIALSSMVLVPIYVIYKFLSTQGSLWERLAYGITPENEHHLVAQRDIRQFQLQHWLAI
T2 sequence (Q63380 1-617): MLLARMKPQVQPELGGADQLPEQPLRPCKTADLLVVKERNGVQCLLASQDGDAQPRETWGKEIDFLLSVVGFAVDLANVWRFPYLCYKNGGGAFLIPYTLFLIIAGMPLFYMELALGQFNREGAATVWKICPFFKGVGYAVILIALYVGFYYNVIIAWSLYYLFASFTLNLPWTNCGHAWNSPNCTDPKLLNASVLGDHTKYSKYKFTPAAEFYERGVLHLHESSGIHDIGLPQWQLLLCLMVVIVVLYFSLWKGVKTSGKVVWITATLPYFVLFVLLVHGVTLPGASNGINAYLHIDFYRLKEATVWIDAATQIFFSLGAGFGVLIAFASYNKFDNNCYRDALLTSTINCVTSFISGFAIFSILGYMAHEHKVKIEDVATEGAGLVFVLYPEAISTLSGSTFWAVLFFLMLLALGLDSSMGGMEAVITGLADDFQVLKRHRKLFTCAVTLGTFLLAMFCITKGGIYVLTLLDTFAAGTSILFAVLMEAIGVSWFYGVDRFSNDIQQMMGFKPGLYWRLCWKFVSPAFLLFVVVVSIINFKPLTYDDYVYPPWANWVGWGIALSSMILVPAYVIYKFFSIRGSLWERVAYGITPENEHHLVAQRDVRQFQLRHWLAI

Consider `N=C(N)NCCc1ccc(O)c(F)c1` [3F-PHPG, 3-fluoro-4-hydroxyphenethylguanidine], for which, in data set [1] (setting [7]), the IC50 (usually the midpoint of a concentration-inhibition curve) worked out at 780 ± 60 nM. Moreover, the heart-to-liver ratio in data set [2] is given as 2.5 ± 0.3.

For `N=C(N)NCCc1ccc(F)c(O)c1` [4F-MHPG, 4-fluoro-3-hydroxyphenethylguanidine], the IC50 in data set [1] (setting [7]) came out at 2780 ± 1220 nM. In addition, the heart-to-liver ratio in data set [2] is recorded as 2.2 ± 0.8.

`NCCc1cc(O)c(O)cc1F` [6F-DA, 6-fluorodopamine] yielded an IC50 in data set [1] of 1200 ± 330 nM.

On to `N=C(N)NCCc1ccc(OCCCF)c(F)c1` [AF78, 1-(3-fluoro-4-(3-fluoropropoxy)phenethyl)guanidine], for which the IC50 in data set [1] (setting [7]) was determined as 420 ± 140 nM. Also, the “fold higher affinity of AF78 relative to MIBG” value in data set [1] (ratio of IC50 values, SK-N-SH cells) turned out to be 4.2 fold. Besides, in data set [3] (5 min postinjection), the heart-to-blood pool ratio is reported as 2.03 ± 0.53 and the heart-to-liver ratio amounted to 0.38 ± 0.29. In addition, the heart-to-liver ratio in data set [3] (30 min postinjection) stood at 0.95 ± 0.20. Further, in data set [3] (60 min postinjection), the “absolute SUV in the blood pool” value is 0.72 ± 0.34 SUV, the “absolute SUV in the liver” value is 0.91 ± 0.47 SUV, the heart-to-blood pool ratio worked out at 1.82 ± 0.71 and the heart-to-liver ratio stood at 1.60 ± 0.38. In data set [3] (heart, 5 min postinjection), the “cardiac SUV” value is on record as 1.74 ± 0.24 SUV. Moreover, the “cardiac uptake, mean SUV” value in data set [3] (heart, 60 min postinjection) was determined as 1.46 ± 0.18 SUV. For the same compound, in data set [4] (DMI 1 mg/kg 10 min after tracer), the “cardiac mean SUV after DMI chase” value was 1.40 ± 0.07 SUV. In data set [4] (DMI injected 10 min before tracer), the “cardiac mean SUV after DMI blocking” value stood at 0.45 ± 0.05 SUV. In data set [4] (tyramine 50 µg/kg 5 times at 10-min intervals), the “cardiac mean SUV after intermittent TYR chase” value worked out at 0.92 ± 0.20 SUV. For the same compound, the “cardiac uptake upon PhB pretreatment” value in data set [5] (PhB 50 mg/kg 10 min before tracer, time-activity curves) is given as “decreased rapidly”. In addition, the “organ-to-blood ratios, early (10 min) versus late (60 min) phase” value in data set [5] (biodistribution study, controls) is recorded as “unchanged”. Further, in data set [6], the “cardiac uptake in the DMI pretreatment group” value is “reduced significantly”.

In the case of `N=C(N)NCc1ccc(OCCCF)c(Br)c1` [FBBG, flubrobenguane], the IC50 in data set [1] (setting [7]) was 2280 ± 1050 nM.

As for `CN[C@@H](C)[C@H](O)c1cccc(O)c1` [HED, metahydroxyephedrine], the IC50 in data set [1] turned out to be 390 ± 110 nM.

In the case of `N=C(N)NCc1cccc(I)c1` [MIBG, metaiodobenzylguanidine, reference compound], the IC50 in data set [1] (setting [7]) turned out to be 1750 ± 470 nM. The “cardiac uptake in the DMI pretreatment group” value in data set [6] is listed as “reduced significantly”.
